Measured values: patent US20230103791A1 (GLAXOSMITHKLINE INTELLECTUAL PROPERTY DEVELOPMENT LIMITED, priority 2019, published 2023)

Target: T1, human Nav1.8 (Homo sapiens, UniProt Q9Y5Y9)
T1 construct: expressed in transfected cells; host or cells: HEK293 (HEK293-Nav1.8)
Test: Nav1.8 sodium channels assay, QPatch 48 HTX electrophysiology in HEK293-Nav1.8 cells
Format: cell-based
Settings: at least one set of experimental runs; read-out: average pIC50 value against Nav1.8 (converted)
Method: Human embryonic kidney […] cells (HEK293) expressing human Nav1.8, human Navβ1 and human TREK1 (HEK293-Nav1.8) were grown at 37° C., 5% CO2 in 150 cm^2 flasks. HEK293-Nav1.8 were passaged every 2-3 days when confluency reached 80-90% in to T175 cell culture flasks.
Pharmacological assessment of the invention was performed using HEK293-Nav1.8 in combination with an assay developed on the QPatch 48 HTX electrophysiological system. HEK293-Nav1.8 were prepared on the day of use by removing culture media, washing in DPBS, adding Accutase (2 ml to cover the surface, aspirate 1 ml then 1.5 min at 37° C.) followed by addition of CHO-SFM II to stop the enzyme digestion and in order to obtain a suspension of 3×10^6 cell/mL.
The invention was prepared in an extracellular solution of the following composition (in mM) NaCl 145, KCl 4, CaCl2 2, MgCl 2, HEPES 1, Glucose 10, pH 7.4 with NaOH Osmolality 300 mOsM/L. The intracellular solution was used of the following composition (in mM) CsF 115, CsCl 20, NaCl 5, EGTA 10, HEPES 10, Sucrose 20, pH 7.2 with CsOH Osmolality 310 mOsm/L.
Utilizing the voltage-clamp mode in the QPatch 48 HTX system a half inactivation state voltage protocol (V1/2) was used to determine pharmacological activity of the invention at Nav1.8 ion channels. A V1/2 protocol was utilized with the following voltage steps: a holding voltage of −100 mV was established followed by a 20 ms voltage step to 0 mV (P1), followed by an inactivating voltage step at −46 mV for 8 seconds, followed by a step to −100 mV for 20 ms, before a 20 ms step to 0 mV (P2) before returning to the holding voltage of −100 mV. This voltage protocol was repeated at a frequency of 0.07 Hz., current magnitude was quantified at the P2 step throughout the recording. Inhibition of the measured current amplitude with the invention was analyzed by fitting a 6-8 point dose-response curve allowing determination of the fifty percent inhibition concentration (IC50). Within the QPatch HTX software, P2 current was normalized according to measurements made at baseline after compound and after positive reference compound and fit to the following equation: […]
To assess current run-down over the course of the experiment vehicle-only wells were utilized and the normalized current with vehicle-only (n.IVEH) was determined. To correct the compound response for run-down, the currents were correct according the following formula: […]
Compounds of the invention are tested for activity against Nav1. 8 sodium channels in the above assay.

T1 sequence (Q9Y5Y9 whole entry): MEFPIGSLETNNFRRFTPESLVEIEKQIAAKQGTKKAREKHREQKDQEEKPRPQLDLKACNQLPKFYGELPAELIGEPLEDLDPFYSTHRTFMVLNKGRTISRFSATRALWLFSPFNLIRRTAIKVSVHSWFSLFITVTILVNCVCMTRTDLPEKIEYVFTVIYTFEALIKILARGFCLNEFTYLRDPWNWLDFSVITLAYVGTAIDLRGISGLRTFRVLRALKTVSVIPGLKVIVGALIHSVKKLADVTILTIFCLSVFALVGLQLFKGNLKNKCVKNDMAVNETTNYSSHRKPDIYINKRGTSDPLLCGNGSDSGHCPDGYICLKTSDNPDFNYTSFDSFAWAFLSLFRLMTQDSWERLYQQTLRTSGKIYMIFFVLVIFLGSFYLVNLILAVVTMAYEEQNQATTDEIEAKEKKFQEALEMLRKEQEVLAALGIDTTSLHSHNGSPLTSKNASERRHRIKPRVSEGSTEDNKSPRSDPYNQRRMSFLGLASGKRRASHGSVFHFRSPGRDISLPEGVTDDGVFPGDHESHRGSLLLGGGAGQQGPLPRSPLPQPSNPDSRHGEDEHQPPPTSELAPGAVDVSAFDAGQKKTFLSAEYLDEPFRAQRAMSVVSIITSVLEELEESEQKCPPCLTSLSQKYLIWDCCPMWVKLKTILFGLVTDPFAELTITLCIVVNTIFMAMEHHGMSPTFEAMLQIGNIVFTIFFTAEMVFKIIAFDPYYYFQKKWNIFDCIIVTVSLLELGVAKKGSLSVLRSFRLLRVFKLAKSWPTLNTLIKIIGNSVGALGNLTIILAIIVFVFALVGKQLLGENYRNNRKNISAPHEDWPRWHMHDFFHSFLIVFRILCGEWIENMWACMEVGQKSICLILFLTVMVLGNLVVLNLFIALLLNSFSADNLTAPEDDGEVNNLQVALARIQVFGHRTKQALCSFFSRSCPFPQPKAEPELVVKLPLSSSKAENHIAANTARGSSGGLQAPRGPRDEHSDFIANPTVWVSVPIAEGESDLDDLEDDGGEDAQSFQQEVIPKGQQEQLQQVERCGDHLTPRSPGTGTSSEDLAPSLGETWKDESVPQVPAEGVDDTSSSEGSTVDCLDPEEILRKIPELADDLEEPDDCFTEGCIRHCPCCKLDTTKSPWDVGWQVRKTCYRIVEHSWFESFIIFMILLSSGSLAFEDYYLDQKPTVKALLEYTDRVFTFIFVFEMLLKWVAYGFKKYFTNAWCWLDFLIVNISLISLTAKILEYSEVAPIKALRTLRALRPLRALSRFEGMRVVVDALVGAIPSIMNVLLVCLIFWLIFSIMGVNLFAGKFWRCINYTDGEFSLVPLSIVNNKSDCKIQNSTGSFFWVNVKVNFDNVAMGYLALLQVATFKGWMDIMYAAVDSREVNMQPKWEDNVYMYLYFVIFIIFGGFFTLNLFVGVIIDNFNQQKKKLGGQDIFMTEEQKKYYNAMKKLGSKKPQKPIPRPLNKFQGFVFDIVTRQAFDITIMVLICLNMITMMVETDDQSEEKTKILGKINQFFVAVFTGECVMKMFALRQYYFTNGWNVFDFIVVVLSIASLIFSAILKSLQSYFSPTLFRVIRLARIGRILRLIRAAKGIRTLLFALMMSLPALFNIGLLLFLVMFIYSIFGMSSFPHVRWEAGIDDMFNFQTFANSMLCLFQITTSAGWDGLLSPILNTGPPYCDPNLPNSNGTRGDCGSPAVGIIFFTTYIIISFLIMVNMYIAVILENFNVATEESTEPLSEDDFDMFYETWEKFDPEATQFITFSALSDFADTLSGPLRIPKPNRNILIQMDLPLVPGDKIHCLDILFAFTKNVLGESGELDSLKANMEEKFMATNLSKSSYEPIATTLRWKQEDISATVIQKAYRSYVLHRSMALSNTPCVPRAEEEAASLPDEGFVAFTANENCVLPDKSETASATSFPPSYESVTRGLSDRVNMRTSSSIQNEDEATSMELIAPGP
T1 sequence (Q07699 19-218 partner): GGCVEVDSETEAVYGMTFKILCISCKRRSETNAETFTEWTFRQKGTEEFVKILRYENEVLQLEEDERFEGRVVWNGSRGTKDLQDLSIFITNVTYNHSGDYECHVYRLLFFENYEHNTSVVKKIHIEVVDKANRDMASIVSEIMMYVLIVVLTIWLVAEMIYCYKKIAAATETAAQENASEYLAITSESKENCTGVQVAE

Row | Structure (SMILES) | IC50 [nM]
1 | Cc1cnccc1N1CN(c2ccc(F)cc2C)c2ccc(C(F)(F)F)cc2C1=O [Example 16, 1-(4-fluoro-2-methylphenyl)-3-(3-methylpyridin-4-yl)-6-(trifluoromethyl)-2,3-dihydroquinazolin-4(1H)-one] | 126 to 631
2 | Cc1cc(F)ccc1N1CN(C2CCS(=O)(=O)CC2)C(=O)c2ccc(C(F)(F)F)cc21 [Example 17, 3-(1,1-dioxidotetrahydro-2H-thiopyran-4-yl)-1-(4-fluoro-2-methylphenyl)-7-(trifluoromethyl)-2,3-dihydroquinazolin-4(1H)-one] | 794 to 7940
3 | Cc1cc(F)ccc1N1CN(c2cn[nH]c2)C(=O)c2cc(C(F)(F)F)ccc21 [Example 18, 1-(4-fluoro-2-methylphenyl)-3-(1H-pyrazol-4-yl)-6-(trifluoromethyl)-2,3-dihydroquinazolin-4(1H)-one] | 794 to 7940
4 | COc1ccc(N2CN(c3ccc(F)cc3C)c3ccc(C(F)(F)F)cc3C2=O)c(C)n1 [Example 19, 1-(4-fluoro-2-methylphenyl)-3-(6-methoxy-2-methylpyridin-3-yl)-6-(trifluoromethyl)-2,3-dihydroquinazolin-4(1H)-one] | 794 to 7940
5 | Cc1cc(F)ccc1N1CN(c2n[nH]c(=O)cc2C)C(=O)c2ccc(C(F)(F)F)cc21 [Example 20, 1-(4-fluoro-2-methylphenyl)-3-(4-methyl-6-oxo-1,6-dihydropyridazin-3-yl)-7-(trifluoromethyl)-2,3-dihydroquinazolin-4(1H)-one] | 794 to 7940
6 | Cc1cnccc1N1CN(c2ccc(OC(F)(F)F)cc2C)c2ccc(C(F)(F)F)cc2C1=O [Example 21, 1-(2-methyl-4-(trifluoromethoxy)phenyl)-3-(3-methylpyridin-4-yl)-6-(trifluoromethyl)-2,3-dihydroquinazolin-4(1H)-one] | 126 to 631
7 | Cc1cc(Cl)ncc1N1CN(c2ccc(F)cc2C)c2ccc(C(F)(F)F)cc2C1=O [Example 22, 3-(6-chloro-4-methylpyridin-3-yl)-1-(4-fluoro-2-methylphenyl)-6-(trifluoromethyl)-2,3-dihydroquinazolin-4(1H)-one] | 794 to 7940
8 | Cc1cnccc1N1CN(c2ccc(F)cc2C)c2cc(C(F)F)c(Cl)cc2C1=O [Example 23, 6-chloro-7-(difluoromethyl)-1-(4-fluoro-2-methylphenyl)-3-(3-methylpyridin-4-yl)-2,3-dihydroquinazolin-4(1H)-one] | 126 to 631
9 | Cc1cc(F)ccc1N1CN(c2c[nH]nc2C)C(=O)c2cc(C(F)(F)F)ccc21 [Example 28, 1-(4-fluoro-2-methylphenyl)-3-(3-methyl-1H-pyrazol-4-yl)-6-(trifluoromethyl)-2,3-dihydroquinazolin-4(1H)-one] | 126 to 631
10 | Cc1cc(F)ccc1N1CN([C@H]2CCC(=O)N[C@@H]2C)C(=O)c2cc(C(F)(F)F)ccc21 [Example 33, 1-(4-fluoro-2-methylphenyl)-3-((2R,3S)-2-methyl-6-oxopiperidin-3-yl)-6-(trifluoromethyl)-2,3-dihydroquinazolin-4(1H)-one] | ≤ 100
11 | Cc1cc(F)ccc1N1CN(C2CCC(=O)NC2=O)C(=O)c2cc(C(F)(F)F)ccc21 (stereo not shown) [Example 34, 3-(1-(4-fluoro-2-methylphenyl)-4-oxo-6-(trifluoromethyl)-1,4-dihydroquinazolin-3(2H)-yl)piperidine-2,6-dione] | 126 to 631
12 | Cc1cc(F)ccc1N1CN(c2ccc(=O)[nH]c2C)C(=O)c2ccc(C(F)(F)F)cc21 [Example 35, 1-(4-Fluoro-2-methylphenyl)-3-(2-methyl-6-oxo-1,6-dihydropyridin-3-yl)-7-(trifluoromethyl)-2,3-dihydroquinazolin-4(1H)-one] | ≤ 100
13 | Cc1cc(F)ccc1N1CN(c2ccc(=O)[nH]c2)C(=O)c2ccc(C(F)(F)F)cc21 [Example 36, 1-(4-fluoro-2-methylphenyl)-3-(6-oxo-1,6-dihydropyridin-3-yl)-7-(trifluoromethyl)-2,3-dihydroquinazolin-4(1H)-one] | 126 to 631

Further lines, results first:

Row | IC50 [nM] | Structure (SMILES)
14 | 794 to 7940 | O=C1c2ccc(C(F)(F)F)cc2N(C2CCCCC2)CN1c1ccc(=O)[nH]c1 [Example 37, 1-cyclohexyl-3-(6-oxo-1,6-dihydropyridin-3-yl)-7-(trifluoromethyl)-2,3-dihydroquinazolin-4(1H)-one]
15 | 794 to 7940 | Cc1cc(F)cc(C)c1N1CN(c2ccc(=O)[nH]c2)C(=O)c2ccc(C(F)(F)F)cc21 [Example 38, 1-(4-fluoro-2,6-dimethylphenyl)-3-(6-oxo-1,6-dihydropyridin-3-yl)-7-(trifluoromethyl)-2,3-dihydroquinazolin-4(1H)-one]
16 | 794 to 7940 | Cc1cc(F)ccc1N1c2cc(C(F)(F)F)ccc2C(=O)N(c2ccc(=O)[nH]c2)C1C (stereo not shown) [Example 39, 1-(4-fluoro-2-methylphenyl)-2-methyl-3-(6-oxo-1,6-dihydropyridin-3-yl)-7-(trifluoromethyl)-2,3-dihydroquinazolin-4(1H)-one]
17 | 126 to 631 | O=C1c2ccc(C(F)(F)F)cc2N(c2ccc(F)cc2Cl)CN1c1ccc(=O)[nH]c1 [Example 40, 1-(2-chloro-4-fluorophenyl)-3-(6-oxo-1,6-dihydropyridin-3-yl)-7-(trifluoromethyl)-2,3-dihydroquinazolin-4(1H)-one]
18 | 794 to 7940 | O=C1c2ccc(C(F)(F)F)cc2N(c2ccc(F)cc2OCCO)CN1c1ccc(=O)[nH]c1 [Example 41, 1-(4-fluoro-2-(2-hydroxyeth-oxy)phenyl)-3-(6-oxo-1,6-dihydropyridin-3-yl)-7-(trifluoromethyl)-2,3-dihydroquinazolin-4(1H)-one]
19 | 794 to 7940 | O=C1c2ccc(C(F)(F)F)cc2N(c2ccc(F)cc2F)CN1c1ccc(=O)[nH]c1 [Example 42, 1-(2,4-difluorophenyl)-3-(6-oxo-1,6-dihydropyridin-3-yl)-7-(trifluoromethyl)-2,3-dihydroquinazolin-4(1H)-one]
20 | 126 to 631 | CCc1cc(F)ccc1N1CN(c2ccc(=O)[nH]c2)C(=O)c2ccc(C(F)(F)F)cc21 [Example 43, 1-(2-ethyl-4-fluorophenyl)-3-(6-oxo-1,6-dihydropyridin-3-yl)-7-(trifluoromethyl)-2,3-dihydroquinazolin-4(1H)-one]
21 | 794 to 7940 | Cc1cc(F)ccc1N1CN(c2ccc(=O)[nH]c2)C(=O)c2ccc(C(F)(F)F)c(Cl)c21 [Example 44, 8-chloro-1-(4-fluoro-2-methylphenyl)-3-(6-oxo-1,6-dihydropyridin-3-yl)-7-(trifluoromethyl)-2,3-dihydroquinazolin-4(1H)-one]
22 | 794 to 7940 | Cc1cc(F)ccc1N1CN(c2ccc(=O)[nH]c2)C(=O)c2ccc(C(F)(F)F)c(C)c21 [Example 45, 1-(4-fluoro-2-methylphenyl)-8-methyl-3-(6-oxo-1,6-dihydropyridin-3-yl)-7-(trifluoromethyl)-2,3-dihydroquinazolin-4(1H)-one]
23 | 794 to 7940 | Cc1ncccc1N1CN(c2ccc(=O)[nH]c2C)C(=O)c2ccc(C(F)(F)F)cc21 [Example 46, 3-(2-methyl-6-oxo-1,6-dihydropyridin-3-yl)-1-(2-methylpyridin-3-yl)-7-(trifluoromethyl)-2,3-dihydroquinazolin-4(1H)-one]
24 | ≤ 100 | Cc1[nH]c(=O)ccc1N1CN(c2ccc(F)cc2C(C)C)c2cc(C(F)(F)F)ccc2C1=O [Example 47, 1-(4-fluoro-2-isopropylphenyl)-3-(2-methyl-6-oxo-1,6-dihydropyridin-3-yl)-7-(trifluoromethyl)-2,3-dihydroquinazolin-4(1H)-one]
25 | ≤ 100 | Cc1cc(F)ccc1N1CN(c2ccc(=O)[nH]c2C)C(=O)c2cc(Cl)ccc21 [Example 48, 6-chloro-1-(4-fluoro-2-methylphenyl)-3-(2-methyl-6-oxo-1,6-dihydropyridin-3-yl)-2,3-dihydroquinazolin-4(1H)-one]
26 | 794 to 7940 | Cc1[nH]c(=O)ccc1N1CN(c2ccc(F)cc2)c2ccccc2C1=O [Example 49, 1-(4-fluorophenyl)-3-(2-methyl-6-oxo-1,6-dihydropyridin-3-yl)-2,3-dihydroquinazolin-4(1H)-one]
27 | 126 to 631 | Cc1ccccc1N1CN(c2ccc(=O)[nH]c2C)C(=O)c2ccccc21 [Example 50, 3-(2-methyl-6-oxo-1,6-dihydropyridin-3-yl)-1-(o-tolyl)-2,3-dihydroquinazolin-4(1H)-one]
28 | ≤ 100 | Cc1ccc2c(c1)C(=O)N(c1ccc(=O)[nH]c1C)CN2c1ccc(F)cc1C [Example 51, 1-(4-f1uoro-2-methylphenyl)-6-methyl-3-(2-methyl-6-oxo-1,6-dihydropyridin-3-yl)-2,3-dihydroquinazolin-4(1H)-one]
